Measured values reported in patent publication US8859589B2 (priority 2008, dated 2014).
Values joined by “and” are separate entries in the source; they are usually repeats but may differ in a detail not shown here. Identical values can stand only once. Like-named read-outs stand apart in the source and are kept apart here.

Key:
[1] = test system: dUTPase deficient mutant strain of VV; assay type: cell-based, Vaccinia Virus
CV Cowpox Virus = assay type: cell-based
in vitro [2] = assay: in vitro
VV = test system: VV; parameters: species or system mice; conditions: mouse, in vivo
VV or CV = test system: VV or CV; parameters: species or system mice; conditions: mouse, in vivo
[3] = test system: wild-type VV (Vaccinia Virus); assay type: cell-based
Cowpox Virus-BR = test system: Cowpox Virus-BR; parameters: species or system BALB/c mice; conditions: mouse, in vivo
in vitro [4] = assay: in vitro; remark: listed apart in the source
[5] = test system: thymidine kinase deficient mutant strain of VV; assay type: cell-based, Vaccinia Virus
CV = test system: CV; parameters: species or system mice; conditions: mouse, in vivo

Row | SMILES | antiviral activity against mutant strain of VV [1] | effective concentration against CV (CV Cowpox Virus) | CC50 (in vitro [2]) [µM] | protection from mortality (VV) | reduction in mortality (VV or CV) | effective concentration against wild-type VV [3] | MDD ± STDEV (Mean Day of Death) (Cowpox Virus-BR) | Mortality Number (Cowpox Virus-BR) | CC50 (in vitro [4]) [µM] | antiviral activity against mutant strain of VV [5] | protection from mortality (CV) | Mortality Percent (Cowpox Virus-BR) [%]
1 | O=c1[nH]c(=O)n([C@H]2C[C@H](O)[C@@H](CO)S2)cc1I [5-iodo-4′-thio-2′-deoxyuridine] | retained its antiviral activity | less than 1.0 μM | > 100 | completely protected | significant reduction in mortality | less than 1.0 μM | 18.0 and 16.0 ± 2.8 and 14.0 and 14.0 ± 5.7 | 0/15 and 0/13 and 1/15 and 2/15 | > 100 | retained its antiviral activity | complete protection from mortality | 
2 | Nc1ccn(C[C@@H](CO)OCP(=O)(O)O)c(=O)n1 [Cidofovir, reference compound] |  |  |  |  |  |  |  | 0/15 and 0/14 |  |  |  | 0
